Data published in article PMC11191095, “QSAR Reveals Decreased Lipophilicity of Polar Residues Determines the Selectivity of Antimicrobial Peptide Activity” (ACS Omega, 2024).
Where a SMILES comes first, the peptide text is derived from it.

How the values were obtained:
Assay in all cases: microbe, parasite or virus in culture
K. pneumoniae M6 = type: cell-based, Klebsiella pneumoniae; settings: K. pneumoniae M6 (S)
Summary of the method: (§1)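 Peptides 128→2 μg/mL, 2-fold series; inoculum ~5 × 10^5 CFU/mL from overnight culture (OD600 0.01, mixed 1:1). MHB non-cation-adjusted for bacteria, RPMI 1640 + 2% glucose for fungi. 37 °C, 20 h, OD600. MIC50/MIC90 at 50%/90% inhibition; n ≥ 3.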

K. pneumoniae NCTC 13368 = type: cell-based, Klebsiella pneumoniae; settings: K. pneumoniae NCTC 13368 (R)
Summary of the method: as §1

S. aureus (MRSA) 1199B = type: cell-based, Staphylococcus aureus; settings: S. aureus (MRSA) 1199B (R)
Summary of the method: as §1

[1] = test system: S. aureus (MSSA) ATCC 9144; type: cell-based, Staphylococcus aureus; settings: S. aureus (MSSA) ATCC 9144 (S)
Summary of the method: as §1

[2] = test system: S. aureus (MRSA) NCTC 13616; type: cell-based, Staphylococcus aureus; settings: S. aureus (MRSA) NCTC 13616 (R)
Summary of the method: as §1

A. baumannii AYE = type: cell-based, Acinetobacter baumannii; settings: A. baumannii AYE (R)
Summary of the method: as §1

A. baumannii ATCC 17978 = type: cell-based, Acinetobacter baumannii; settings: A. baumannii ATCC 17978 (S)
Summary of the method: as §1

E. coli NCTC 12923 = type: cell-based, Escherichia coli; settings: E. coli NCTC 12923 (S)
Summary of the method: as §1

E. coli LEC001 = type: cell-based, Escherichia coli; settings: E. coli LEC001 (R)
Summary of the method: as §1

C. auris TDG 1912 = type: cell-based, Candida auris; settings: C. auris TDG 1912
Summary of the method: as §1

C. glabrata NCPF 8018 = type: cell-based; settings: C. glabrata NCPF 8018
Summary of the method: as §1

C. krusei NCPF 3876 = type: cell-based; settings: C. krusei NCPF 3876
Summary of the method: as §1

[3] = test system: C. parapsilosis NCPF 3209; type: cell-based; settings: C. parapsilosis NCPF 3209
Summary of the method: as §1

C. albicans NCPF 3281 = type: cell-based; settings: C. albicans NCPF 3281
Summary of the method: as §1

C. tropicalis NCPF 8760 = type: cell-based; settings: C. tropicalis NCPF 8760
Summary of the method: as §1

P. aeruginosa NCTC 13437 = type: cell-based, Pseudomonas aeruginosa; settings: P. aeruginosa NCTC 13437 (R)
Summary of the method: as §1

[4] = MHB, 37 °C, 20 h, OD600, min. three biological repeats
[5] = MHB, ~5×10^5 CFU/mL, 37 °C, 20 h, OD600, min. three biological repeats
[6] = 50% growth inhibition, RPMI 1640 + 2% glucose, 37 °C, 20 h, OD600
[7] = 90% growth inhibition, RPMI 1640 + 2% glucose, 37 °C, 20 h, OD600
[8] = 50% growth inhibition, RPMI 1640 + 2% glucose, 37 °C, 20 h
[9] = 90% growth inhibition, RPMI 1640 + 2% glucose, 37 °C, 20 h

CC[C@H](C)[C@H](NC(=O)[C@H](CCCCN)NC(=O)[C@H](CC(C)C)NC(=O)[C@H](C)NC(=O)[C@H](C)NC(=O)[C@H](CCCCN)NC(=O)[C@H](CC(C)C)NC(=O)[C@H](C)NC(=O)[C@@H](N)CCCCN)C(=O)NCC(=O)N[C@@H](C)C(=O)N[C@@H](CC(N)=O)C(N)=O [CPF-P3-12a] (H-KALKAALKIGAN-NH2)
Modal MIC (K. pneumoniae M6; [4]): > 128 µg/mL
Modal MIC (K. pneumoniae M6; shown in µM): > 103.8 µM
Modal MIC (K. pneumoniae NCTC 13368; [4]): > 128 µg/mL
Modal MIC (K. pneumoniae NCTC 13368; shown in µM): > 103.8 µM
Modal MIC (S. aureus (MRSA) 1199B; [4]): > 128 µg/mL
Modal MIC (S. aureus (MRSA) 1199B; shown in µM): > 103.8 µM
Modal MIC [1, 4]: > 128 µg/mL
Modal MIC ([1]; shown in µM): > 103.8 µM
Modal MIC [2, 4]: > 128 µg/mL
Modal MIC ([2]; shown in µM): > 103.8 µM
Modal MIC (A. baumannii AYE; [4]): > 128 µg/mL
Modal MIC (A. baumannii AYE; shown in µM): > 103.8 µM
Modal MIC (A. baumannii ATCC 17978; [4]): > 128 µg/mL
Modal MIC (A. baumannii ATCC 17978; shown in µM): > 103.8 µM
Modal MIC (E. coli NCTC 12923; [5]): > 128 µg/mL
Modal MIC (E. coli NCTC 12923; shown in µM): > 103.8 µM
Modal MIC (E. coli LEC001; [4]): > 128 µg/mL
Modal MIC (E. coli LEC001; shown in µM): > 103.8 µM
Modal MIC50 (C. auris TDG 1912; [6]): > 128 µg/mL
Modal MIC90 (C. auris TDG 1912; [7]): > 128 µg/mL
Modal MIC50 (C. auris TDG 1912; shown in µM): > 103.8 µM
Modal MIC90 (C. auris TDG 1912; shown in µM): > 103.8 µM
Modal MIC50 (C. glabrata NCPF 8018; [8]): > 128 µg/mL
Modal MIC90 (C. glabrata NCPF 8018; [9]): > 128 µg/mL
Modal MIC50 (C. glabrata NCPF 8018; shown in µM): > 103.8 µM
Modal MIC90 (C. glabrata NCPF 8018; shown in µM): > 103.8 µM
Modal MIC50 (C. krusei NCPF 3876; [8]): > 128 µg/mL
Modal MIC90 (C. krusei NCPF 3876; [9]): > 128 µg/mL
Modal MIC50 (C. krusei NCPF 3876; shown in µM): > 103.8 µM
Modal MIC90 (C. krusei NCPF 3876; shown in µM): > 103.8 µM
Modal MIC50 [3, 8]: > 128 µg/mL
Modal MIC90 [3, 9]: > 128 µg/mL
Modal MIC50 ([3]; shown in µM): > 103.8 µM
Modal MIC90 ([3]; shown in µM): > 103.8 µM
Modal MIC50 (C. albicans NCPF 3281; [8]): > 128 µg/mL
Modal MIC90 (C. albicans NCPF 3281; [9]): > 128 µg/mL
Modal MIC50 (C. albicans NCPF 3281; shown in µM): > 103.8 µM
Modal MIC90 (C. albicans NCPF 3281; shown in µM): > 103.8 µM
Modal MIC50 (C. tropicalis NCPF 8760; [8]): > 128 µg/mL
Modal MIC90 (C. tropicalis NCPF 8760; [9]): > 128 µg/mL
Modal MIC50 (C. tropicalis NCPF 8760; shown in µM): > 103.8 µM
Modal MIC90 (C. tropicalis NCPF 8760; shown in µM): > 103.8 µM
Modal MIC (P. aeruginosa NCTC 13437; [4]): > 128 µg/mL
Modal MIC (P. aeruginosa NCTC 13437; shown in µM): > 103.8 µM

CC[C@H](C)[C@H](NC(=O)CNC(=O)[C@@H](N)CCCNC(=N)N)C(=O)N[C@@H](CCCNC(=N)N)C(=O)NCC(=O)N[C@@H](Cc1ccc(O)cc1)C(=O)N[C@@H](CCCCN)C(=O)NCC(=O)NCC(=O)N[C@@H](Cc1ccc(O)cc1)C(=O)N[C@@H](CS)C(=O)N[C@H](C(=O)NCC(=O)N[C@@H](CCCNC(=N)N)C(=O)N[C@@H](Cc1ccccc1)C(=O)N[C@@H](CCCCN)C(=O)N[C@@H](CCC(N)=O)C(=O)N[C@H](C(=O)N[C@@H](CS)C(=O)N[C@@H](CCCCN)C(=O)N[C@@H](CS)C(=O)N[C@@H](Cc1ccc(O)cc1)C(=O)O)[C@@H](C)O)[C@@H](C)O [OmDefB] (H-RGIRGYKGGYCTGRFKQTCKCY-OH; N-terminus and C-terminus assumed)
Modal MIC (K. pneumoniae M6; [4]): > 128 µg/mL
Modal MIC (K. pneumoniae M6; shown in µM): > 49.9 µM
Modal MIC (K. pneumoniae NCTC 13368; [4]): > 128 µg/mL
Modal MIC (K. pneumoniae NCTC 13368; shown in µM): > 49.9 µM
Modal MIC (S. aureus (MRSA) 1199B; [4]): > 128 µg/mL
Modal MIC (S. aureus (MRSA) 1199B; shown in µM): > 49.9 µM
Modal MIC [1, 4]: > 128 µg/mL
Modal MIC ([1]; shown in µM): > 49.9 µM
Modal MIC [2, 4]: > 128 µg/mL
Modal MIC ([2]; shown in µM): > 49.9 µM
Modal MIC (A. baumannii AYE; [4]): > 128 µg/mL
Modal MIC (A. baumannii AYE; shown in µM): > 49.9 µM
Modal MIC (A. baumannii ATCC 17978; [4]): > 128 µg/mL
Modal MIC (A. baumannii ATCC 17978; shown in µM): > 49.9 µM
Modal MIC (E. coli NCTC 12923; [5]): > 128 µg/mL
Modal MIC (E. coli NCTC 12923; shown in µM): > 49.9 µM
Modal MIC (E. coli LEC001; [4]): > 128 µg/mL
Modal MIC (E. coli LEC001; shown in µM): > 49.9 µM
Modal MIC50 (C. auris TDG 1912; [6]): > 128 µg/mL
Modal MIC90 (C. auris TDG 1912; [7]): > 128 µg/mL
Modal MIC50 (C. auris TDG 1912; shown in µM): > 49.9 µM
Modal MIC90 (C. auris TDG 1912; shown in µM): > 49.9 µM
Modal MIC50 (C. glabrata NCPF 8018; [8]): > 128 µg/mL
Modal MIC90 (C. glabrata NCPF 8018; [9]): > 128 µg/mL
Modal MIC50 (C. glabrata NCPF 8018; shown in µM): > 49.9 µM
Modal MIC90 (C. glabrata NCPF 8018; shown in µM): > 49.9 µM
Modal MIC50 (C. krusei NCPF 3876; [8]): > 128 µg/mL
Modal MIC90 (C. krusei NCPF 3876; [9]): > 128 µg/mL
Modal MIC50 (C. krusei NCPF 3876; shown in µM): > 49.9 µM
Modal MIC90 (C. krusei NCPF 3876; shown in µM): > 49.9 µM
Modal MIC50 [3, 8]: > 128 µg/mL
Modal MIC90 [3, 9]: > 128 µg/mL
Modal MIC50 ([3]; shown in µM): > 49.9 µM
Modal MIC90 ([3]; shown in µM): > 49.9 µM
Modal MIC50 (C. albicans NCPF 3281; [8]): > 128 µg/mL
Modal MIC90 (C. albicans NCPF 3281; [9]): > 128 µg/mL
Modal MIC50 (C. albicans NCPF 3281; shown in µM): > 49.9 µM
Modal MIC90 (C. albicans NCPF 3281; shown in µM): > 49.9 µM
Modal MIC50 (C. tropicalis NCPF 8760; [8]): > 128 µg/mL
Modal MIC90 (C. tropicalis NCPF 8760; [9]): > 128 µg/mL
Modal MIC50 (C. tropicalis NCPF 8760; shown in µM): > 49.9 µM
Modal MIC90 (C. tropicalis NCPF 8760; shown in µM): > 49.9 µM
Modal MIC (P. aeruginosa NCTC 13437; [4]): > 128 µg/mL
Modal MIC (P. aeruginosa NCTC 13437; shown in µM): > 49.9 µM
